Results: patent publication US20260138978A1, “POSITIVE ALLOSTERIC MODULATORS OF THE MUSCARINIC ACETYLCHOLINE RECEPTOR M1” (Vanderbilt University, priority 2022, published 2026)

What was measured:
human mAChRM1 [1] = target: T1, human mAChRM1 (Homo sapiens, UniProt P11229); test: mAChR M1 cell-based functional assay (calcium mobilization), positive allosteric modulator activity: increase in the EC20 acetylcholine response; settings: for Emax: PAM mode; for EC50: read-out: PAM Activity Human M1 EC50
T1 construct: host or cells: CHO-K1
T1 sequence (P11229 1-460): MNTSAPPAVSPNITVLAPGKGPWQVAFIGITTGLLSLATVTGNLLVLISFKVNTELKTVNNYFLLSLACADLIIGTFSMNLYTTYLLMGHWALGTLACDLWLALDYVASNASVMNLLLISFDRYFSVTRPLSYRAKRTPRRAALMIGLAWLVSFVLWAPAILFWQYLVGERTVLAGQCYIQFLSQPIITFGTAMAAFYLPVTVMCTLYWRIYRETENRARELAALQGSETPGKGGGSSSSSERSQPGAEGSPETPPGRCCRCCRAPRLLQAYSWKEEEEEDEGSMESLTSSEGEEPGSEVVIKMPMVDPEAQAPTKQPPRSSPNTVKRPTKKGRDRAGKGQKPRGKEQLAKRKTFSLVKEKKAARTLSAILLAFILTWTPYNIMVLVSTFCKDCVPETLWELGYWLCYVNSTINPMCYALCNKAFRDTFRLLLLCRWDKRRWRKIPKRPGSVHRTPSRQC
Outline: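 CHO-K1 cells stably expressing human M1, loaded with Fluo-4 AM; calcium flux recorded on FDSS at 1 Hz over 300 s following compound addition. PAM activity is the concentration-dependent increase of an EC20 acetylcholine response; EC50 and Emax from four-parameter logistic fits of 11-point, 1:3 concentration series.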

human mAChRM1 [2] = target: T1, human mAChRM1; test: mAChR M1 cell-based functional assay (calcium mobilization), agonist activity upon compound addition, Emax relative to acetylcholine maximum; settings: for Agonist Activity Human M1 EC50 / EC50: calcium mobilization upon compound addition; for Emax: relative to the maximum for acetylcholine
Outline: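 CHO-K1 cells stably expressing human M1 were loaded with Fluo-4 AM for 50 min at 37 °C. Compound was added 4 s into a 300 s FDSS read at 1 Hz, over 11-point 1:3 dilution curves. Agonism was taken as a concentration-dependent rise in calcium fluorescence ratio, with Emax expressed relative to the acetylcholine maximum from four-parameter logistic fits.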

[3] = increase in the EC20 acetylcholine response

Row | SMILES | Emax (human mAChRM1 [1]) [%] | EC50 (human mAChRM1 [1]; [3]) [nM] | Agonist Activity Human M1 EC50 (human mAChRM1 [2]) | PAM Activity Human M1 EC50 (human mAChRM1 [1]; [3]) | EC50 (human mAChRM1 [2]) [nM] | Emax (human mAChRM1 [2]) [%]
1 | Cn1cc2c(-c3cc(F)c(CN4Cc5ncccc5C4=O)c(N4CCC4)c3)ccc(C(C)(C)O)c2n1 [Compound 78, 6-(2-(azetidin-1-yl)-6-fluoro-4-(7-(2-hydroxypropan-2-yl)-2-methyl-2H-indazol-4-yl)benzyl)-6,7-dihydro-5H-pyrrolo[3,4-b]pyridin-5-one] | 81 | 583 | inactive | – | – | –
2 | Cn1ncc2c(-c3cc(F)c(CN4Cc5ncccc5C4=O)c(F)c3)ccc(C(C)(C)O)c21 [Compound 79, 6-(2,6-difluoro-4-(7-(2-hydroxypropan-2-yl)-1-methyl-1H-indazol-4-yl)benzyl)-6,7-dihydro-5H-pyrrolo[3,4-b]pyridin-5-one] | 76 | 1210 | inactive | – | – | –
3 | Cn1cc2c(-c3cc(F)c(CN4Cc5ncccc5C4=O)c(F)c3)ccc(C(C)(O)C3CC3)c2n1 (stereo not shown) [Compound 80, 6-(4-(7-(1-cyclopropyl-1-hydroxyethyl)-2-methyl-2H-indazol-4-yl)-2,6-difluorobenzyl)-6,7-dihydro-5H-pyrrolo[3,4-b]pyridin-5-one] | 83 | 373 | inactive | – | – | –
4 | CCC(O)(c1ccc(-c2cc(F)c(CN3Cc4ncccc4C3=O)c(F)c2)c2cn(C)nc12)C(F)(F)F (stereo not shown) [Compound 81, 6-(2,6-difluoro-4-(2-methyl-7-(1,1,1-trifluoro-2-hydroxybutan-2-yl)-2H-indazol-4-yl)benzyl)-6,7-dihydro-5H-pyrrolo[3,4-b]pyridin-5-one] | 71 | 4470 | inactive | – | – | –
5 | CCC(C)(O)c1ccc(-c2cc(F)c(CN3Cc4ncccc4C3=O)c(F)c2)c2cn(C)nc12 (stereo not shown) [Compound 82, 6-(2,6-difluoro-4-(7-(2-hydroxybutan-2-yl)-2-methyl-2H-indazol-4-yl)benzyl)-6,7-dihydro-5H-pyrrolo[3,4-b]pyridin-5-one] | 80 | 138 | inactive | – | – | –
6 | CC(C)(O)c1cc(-c2cc(F)c(CN3Cc4ncccc4C3=O)c(F)c2)c2[nH]nnc2c1 [Compound 83, 6-(2,6-difluoro-4-(5-(2-hydroxypropan-2-yl)-1H-benzo[d][1,2,3]triazol-7-yl)benzyl)-6,7-dihydro-5H-pyrrolo[3,4-b]pyridin-5-one] | 39 | ≥ 10000 | inactive | – | – | –
7 | Cn1cc2c(-c3cc(F)c(CN4Cc5ncccc5C4=O)c(F)c3)ccc(C(O)(C3CC3)C3CC3)c2n1 [Compound 84, 6-(4-(7-(dicyclopropyl(hydroxy)methyl)-2-methyl-2H-indazol-4-yl)-2,6-difluorobenzyl)-6,7-dihydro-5H-pyrrolo[3,4-b]pyridin-5-one] | 84 | 1440 | inactive | – | – | –
8 | Cc1cc(-c2ccc(C(O)(C3CC3)C3CC3)c3nn(C)cc23)cc(F)c1CN1Cc2ncccc2C1=O [Compound 85, 6-(4-(7-(dicyclopropyl(hydroxy)methyl)-2-methyl-2H-indazol-4-yl)-2-fluoro-6-methylbenzyl)-6,7-dihydro-5H-pyrrolo[3,4-b]pyridin-5-one] | 81 | 1700 | inactive | – | – | –
9 | Cn1cc2cc(C(C)(C)O)cc(-c3cc(F)c(CN4Cc5ncccc5C4=O)c(F)c3)c2n1 [Compound 86, 6-(2,6-difluoro-4-(5-(2-hydroxypropan-2-yl)-2-methyl-2H-indazol-7-yl)benzyl)-6,7-dihydro-5H-pyrrolo[3,4-b]pyridin-5-one] | – | – | inactive | inactive | – | –
10 | CC(C)(O)c1ccc(-c2cc(F)c(CN3Cc4ncccc4C3=O)c(F)c2)c2c1OCO2 [Compound 87, 6-(2,6-difluoro-4-(7-(2-hydroxypropan-2-yl)benzo[d][1,3]dioxol-4-yl)benzyl)-6,7-dihydro-5H-pyrrolo[3,4-b]pyridin-5-one] | 73 | 1000 | inactive | – | – | –
11 | Cn1cc2cc(-c3cc(F)c(CN4Cc5ncccc5C4=O)c(C4CC4)c3)cc(C(C)(C)O)c2n1 [Compound 88, 6-(2-cyclopropyl-6-fluoro-4-(7-(2-hydroxypropan-2-yl)-2-methyl-2H-indazol-5-yl)benzyl)-6,7-dihydro-5H-pyrrolo[3,4-b]pyridin-5-one] | 82 | 398 | – | – | ≥ 10000 | 21
12 | Cn1cc2c(-c3cc(F)c(CN4Cc5ncccc5C4=O)c(F)c3)ccc(C3(O)COC3)c2n1 [Compound 89, 6-(2,6-Difluoro-4-(7-(3-hydroxyoxetan-3-yl)-2-methyl-2H-indazol-4-yl)benzyl)-6,7-dihydro-5H-pyrrolo[3,4-b]pyridin-5-one] | 82 | 254 | – | – | 6840 | 11
13 | Cn1cc2c(-c3cc(F)c(CN4Cc5ncccc5C4=O)c(F)c3)ccc(C3(O)CCOC3)c2n1 (stereo not shown) [Compound 90, 6-(2,6-difluoro-4-(7-(3-hydroxytetrahydrofuran-3-yl)-2-methyl-2H-indazol-4-yl)benzyl)-6,7-dihydro-5H-pyrrolo[3,4-b]pyridin-5-one] | 83 | 116 | – | – | 2460 | 20
14 | Cn1cc2c(-c3cc(F)c(CN4Cc5ncccc5C4=O)c(F)c3)ccc(C3(O)CCCC3)c2n1 [Compound 91, 6-(2,6-difluoro-4-(7-(1-hydroxycyclopentyl)-2-methyl-2H-indazol-4-yl)benzyl)-6,7-dihydro-5H-pyrrolo[3,4-b]pyridin-5-one] | 72 | 254 | – | – | 7030 | 15
15 | Cn1cc2c(-c3cc(F)c(CN4Cc5ncccc5C4=O)c(F)c3)ccc(C3(O)CCOCC3)c2n1 [Compound 92, 6-(2,6-difluoro-4-(7-(4-hydroxytetrahydro-2H-pyran-4-yl)-2-methyl-2H-indazol-4-yl)benzyl)-6,7-dihydro-5H-pyrrolo[3,4-b]pyridin-5-one] | 81 | 76 | – | – | 1400 | 22
16 | [2H]C([2H])([2H])C(O)(c1ccc(-c2cc(F)c(CN3Cc4ncccc4C3=O)c(F)c2)c2cn(C)nc12)C([2H])([2H])[2H] [Compound 93, 6-(2,6-difluoro-4-(7-(2-hydroxypropan-2-yl-1,1,1,3,3,3-d6)-2-methyl-2H-indazol-4-yl)benzyl)-6,7-dihydro-5H-pyrrolo[3,4-b]pyridin-5-one] | 83 | 76 | – | – | 1870 | 22
17 | C[C@H](c1c(F)cc(-c2ccc(C(C)(C)O)c3nn(C)cc23)cc1F)N1Cc2ncccc2C1=O [Compound 94, (R)-6-(1-(2,6-difluoro-4-(7-(2-hydroxypropan-2-yl)-2-methyl-2H-indazol-4-yl)phenyl)ethyl)-6,7-dihydro-5H-pyrrolo[3,4-b]pyridin-5-one] | 60 | 1270 | inactive | – | – | –
18 | [2H]C([2H])([2H])C(C)(O)c1ccc(-c2cc(F)c(CN3Cc4ncccc4C3=O)c(F)c2)c2cn(C)nc12 (stereo not shown) [Compound 95, 6-(2,6-difluoro-4-(7-(2-hydroxypropan-2-yl-1,1,1-d3)-2-methyl-2H-indazol-4-yl)benzyl)-6,7-dihydro-5H-pyrrolo[3,4-b]pyridin-5-one] | 86 | 96 | – | – | 1860 | 27
19 | Cn1cc2c(-c3cc(F)c(CN4Cc5ncccc5C4=O)c(F)c3)ccc(C3(O)CCC3)c2n1 [Compound 96, 6-(2,6-difluoro-4-(7-(1-hydroxycyclobutyl)-2-methyl-2H-indazol-4-yl)benzyl)-6,7-dihydro-5H-pyrrolo[3,4-b]pyridin-5-one] | 84 | 630 | inactive | – | – | –
20 | Cn1cc2c(-c3cc(F)c(CN4Cc5ncccc5C4=O)c(F)c3)ccc(C(C)(O)CS(C)(=O)=O)c2n1 (stereo not shown) [Compound 97, 6-(2,6-difluoro-4-(7-(2-hydroxy-1-(methylsulfonyl)propan-2-yl)-2-methyl-2H-indazol-4-yl)benzyl)-6,7-dihydro-5H-pyrrolo[3,4-b]pyridin-5-one] | 87 | 872 | inactive | – | – | –
21 | C[C@@H](c1c(F)cc(-c2ccc(C(C)(C)O)c3nn(C)cc23)cc1F)N1Cc2ncccc2C1=O [Compound 98, (S)-6-(1-(2,6-difluoro-4-(7-(2-hydroxypropan-2-yl)-2-methyl-2H-indazol-4-yl)phenyl)ethyl)-6,7-dihydro-5H-pyrrolo[3,4-b]pyridin-5-one] | 80 | 1120 | inactive | – | – | –
22 | CCn1cc2c(-c3cc(F)c(CN4Cc5ncccc5C4=O)c(F)c3)ccc(C(C)(C)O)c2n1 [Compound 99, 6-(4-(2-ethyl-7-(2-hydroxypropan-2-yl)-2H-indazol-4-yl)-2,6-difluorobenzyl)-6,7-dihydro-5H-pyrrolo[3,4-b]pyridin-5-one] | 85 | 176 | – | – | 4110 | 13
